Results: paper PMC5711933, “Intracellular biomass flocculation as a key mechanism of rapid bacterial killing by cationic, amphipathic antimicrobial peptides and peptoids” (Scientific Reports, 2017)
Read-outs that look alike come from different tables or passages of the source. Marks after values point to notes of the source that are not given here. Non-standard residues stand in square brackets, D forms with d. Residues, ends and D or L forms follow the SMILES beside them. N(1S-Me-propyl)Gly = CC[C@H](C)NCC(=O)O; Nspe = C[C@H](NCC(=O)O)c1ccccc1; Nphe = O=C(O)CNCc1ccccc1; Nlys = NCCCCNCC(=O)O

Key:
[1] = system: EGFP-Luc plasmid; assay: DNA retardation assay (gel electrophoresis); type: binding; details: EGFP-Luc plasmid in TBS, complexes 20 min at room temperature, 1–2% agarose gel
Procedure: DNA retardation was analyzed by gel electrophoresis. Peptoid/peptide-DNA complexes were formed by adding 10 µL of peptide/peptoid solution of varying concentrations to 10 µL DNA solution (EGFP-Luc plasmid in Tris-buffered saline (TBS) buffer), and the resulting solution was mixed by gentle aspiration. Complexes were incubated for 20 min at room temperature. After complex formation, 20 µL of each sample were loaded onto a 1–2% agarose gel in Tris/borate/EDTA (TBE) buffer, which ran at 120 V for 15 min. DNA bands on the gel were visualized under UV light by ethidium bromide staining.

[2] = system: Bioluminescent P. aeruginosa; type: cell-based, Pseudomonas aeruginosa; details: 12.5 µM, LB, 37 °C; for Activity in bioluminescence kinetics assay (in words): up to 2 h
Procedure: The decrease in bioluminescence at 37 °C was measured for a range of concentrations from 0 – 100 μM (Supp. Figs. S6 and S7).
Bioluminescent P. aeruginosa [73] was grown at 37 °C in Luria-Bertani (LB) broth. […] In a 96-well plate, 50 µL of P. aeruginosa solution (1 × 10^6 CFU/mL) was added to 50 µL of antimicrobial solution, and the bioluminescence was measured using an IVIS imaging system (a Xenogen product from Caliper Life Sciences, Hopkinton, MA) at 10 min intervals for 2 h. The reported values are the average of three independent experiments with two replicates each.

[3] = RP-HPLC elution (% ACN) as measure of hydrophobicity; type: physicochemical; details: chromatographic hydrophobicity; gradient of 5–95% acetonitrile (ACN) over 45 minutes, C18 column, 0.2 mL/min; average of three replicates
[4] = system: E. coli ATCC 35218; assay: Bacterial count by plating after treatment, before TEM sample preparation; type: cell-based; details: 1 hour in PBS pH 7.4, control 1 × 10^8 CFU/mL
Procedure: E. coli ATCC 35218, grown overnight at 35 °C in Mueller-Hinton broth (MHB), were resuspended in 1X (150 mM) PBS, pH 7.4, and diluted to a concentration of 1 × 10^8 CFU/mL. Aqueous peptide/peptoid stock solutions were added to 1 mL aliquots of the suspension to the desired final concentration. After 1 hour, small volumes of each sample were serially diluted, plated, and incubated overnight at 35 °C, to be counted the following day. The remaining volume of each sample was centrifuged, and the pellet resuspended and enrobed in 5–10 µL of 2% low-melting agarose (gelling temperature 25° ± 5 °C) then drawn up into the tip of a Pasteur pipette. The solidified rods were extruded into fixative (2% glutaraldehyde, 2% paraformaldehyde, 50 mM PBS, pH 7.4). […] 50 nm thin sections of embedded samples were cut using a diamond knife, stained for 5 min in 5% aqueous uranyl acetate, then rinsed in H2O. Sections were examined in a JEOL 1230 TEM. Experimental conditions were each repeated in at least two independent trials. For each replicate of each sample, bacteria across the thin section were first surveyed to determine morphological characteristics representative of that sample, then images were captured of at least five bacteria displaying those morphologies with an emphasis on clean (i.e., orthogonal) transverse and/or longitudinal sections. Each image shown is thus representative of the ultrastructural characteristics observed in bacteria throughout a given sample and between replicates.

[5] = system: P. aeruginosa; assay: Bacterial plating of P. aeruginosa (CFU); type: cell-based, Pseudomonas aeruginosa; details: 12.5 µM, LB, 37 °C, average of three replicates
Procedure: To further explore the mechanism of action, we studied the killing kinetics of AMPs, ampetoids, and conventional antibiotics against luciferase-expressing Pseudomonas aeruginosa, another Gram-negative bacterium, against which these peptoids have previously proven to be effective[61]. The decrease in bioluminescence at 37 °C was measured for a range of concentrations from 0 – 100 μM (Supp. Figs. S6 and S7).
The bacterial counts were determined by plating serial dilutions of samples on LB plates and counting bacterial colonies. The reported values are the average of three replicates.

[6] = system: E. coli bacterial ribosomes; assay: Aggregation of bacterial ribosomes (optical density at 550 nm); type: biochemical; details: 1 µM ribosome solution, antimicrobial up to 800 µM, 10 min, λ = 550 nm
Procedure: In a microcentrifuge tube, 5 µl of 1 µM purified bacterial ribosome solution (~40X diluted (v/v) from their intracellular concentration in bacterial cytosol)[62] was incubated with 5 µl of antimicrobial solution in a concentration range of 0–800 µM for 10 min. The absorbance of the solution was measured by UV-Vis spectroscopy at λ = 550 nm by a spectrophotometer (ND-1000, Thermo Scientific, Wilmington, DE). The values are reported as the average of three independent experiments with three replicates each.

[7] = system: E. coli ATCC 35218; type: cell-based; details: CAMHB, 35 °C, 16 h, final 5 × 10^5 CFU/mL, reproducible between three independent replicates
Procedure: MICs were determined according to CLSI M7-A6 protocols in a 96-well microtiter plate. In test wells, 50 μL bacterial inoculum (1 × 10^6 CFU/ml) in cation-adjusted Mueller-Hinton broth (CAMHB) was added to 50 μL peptoid solution in CAMHB (prepared by 1:2 serial dilutions). Positive controls contained 50 μL inoculum and 50 μL CAMHB without peptoid. […] MIC values reported were reproducible between three independent experimental replicates, each consisting of two parallel trials.

[8] = system: E. coli ATCC 35218; assay: Bacterial count by plating after 1-hour treatment, before SEM sample preparation; type: cell-based; details: 1 hour in PBS, control 5 × 10^5 CFU/mL
Procedure: E. coli was treated with 10 μM peptide or peptoid for 1 hour in phosphate-buffered saline (PBS). […] We used 10 μM peptide/peptoid for all samples since it is near the MICs of the majority of the oligomers.
Before fixation, aliquots of each samples were serially diluted and plated on agar to determine the concentration of live bacteria remaining after the 1-hour treatment. […] (1) SEM samples were treated in PBS (as discussed above), whereas MIC assays are performed in cation-adjusted Mueller-Hinton broth. AMPs and ampetoids are known to interact with ions in the media (for example, when switching from plain Mueller-Hinton broth to cation-adjusted Mueller-Hinton broth)[1], so differences in activity may be due to changes in media composition. (2) the treatments were for one hour only, whereas MICs are determined after 16 hours of growth. […] (3) Some of these compounds may cause inhibition of growth without causing bacterial cell death (i.e., they are bacteriostatic—which is what the MIC indicates—rather than bactericidal—which is determined by plating and counting colonies). […]
Overnight cultures of E. coli ATCC 35218 were centrifuged for 10 min and 2500 × g at room temperature, then resuspended in PBS. […] Bacterial concentrations of the diluted suspensions were calculated from their OD590 values using optical density curves derived from pre-determined concentrations. […]

[9] = system: Erythrocytes; assay: Hemolysis assay; type: cell-based; details: human erythrocytes in PBS pH 7.4, 1 h at 37 °C, A350; three independent replicates (two for LL-37 and fowlicidin-1)
Procedure: The plate was then centrifuged at 1200 g for 15 min, 100 μL of the supernatant from each well transferred to a fresh microtiter plate, and A350 measured.

[10] = average of three independent experiments with two replicates each

NCCCCNCC(=O)N(CC(=O)N(CC(=O)N(CCCCN)CC(=O)N(CC(=O)N(CC(=O)N(CCCCN)CC(=O)N(CC(=O)N(CC(=O)N(CCCCN)CC(=O)N(CC(=O)N(CC(N)=O)Cc1ccccc1)Cc1ccccc1)Cc1ccccc1)Cc1ccccc1)Cc1ccccc1)Cc1ccccc1)Cc1ccccc1)Cc1ccccc1 [1 achiral] (H-[Nlys][Nphe][Nphe][Nlys][Nphe][Nphe][Nlys][Nphe][Nphe][Nlys][Nphe][Nphe]-NH2)
Retardation assay: mass of compound required to completely retard migration of 1 µg of DNA [1]: 1.5 µg
Decrease in bioluminescence within 10 min ([2]; 10 min, average of three independent experiments with two replicates each): ~ 99.9%
% ACN at RP-HPLC elution [3]: 60.4%
TEM: Bacterial count after 10 µM treatment (% of control) [4]: 100 % of control
TEM: Bacterial count after 100 µM treatment (% of control) [4]: 0.03 % of control

CN(C)[C@@H]1C(O)=C(C(N)=O)C(=O)[C@@]2(O)C(O)=C3C(=O)c4c(O)cccc4[C@@](C)(O)[C@H]3C[C@@H]12 [tetracycline]
Decrease in bioluminescence at 2 h [2, 10]: ~ 97%
Killing of bacteria within 10 minutes (CFU plating, in words) [5]: did not kill bacteria
Aggregation of ribosomes (in words) [6]: no aggregation

C[C@@H](c1ccccc1)N(CC(N)=O)C(=O)CN(C(=O)CN(CCCCN)C(=O)[C@@H]1CCCN1C(=O)CN(C(=O)CN(CCCCN)C(=O)CN(C(=O)CN(C(=O)CN(CCCCN)C(=O)CN(C(=O)CN(C(=O)CNCCCCN)[C@@H](C)c1ccccc1)[C@@H](C)c1ccccc1)[C@@H](C)c1ccccc1)[C@@H](C)c1ccccc1)[C@@H](C)c1ccccc1)[C@@H](C)c1ccccc1 [1-Pro9] (H-[Nlys][Nspe][Nspe][Nlys][Nspe][Nspe][Nlys][Nspe]P[Nlys][Nspe][Nspe]-NH2)
Decrease in bioluminescence at 2 h [2, 10]: ~ 20%
% ACN at RP-HPLC elution [3]: 62.6%

C[C@@H](c1ccccc1)N(CC(N)=O)C(=O)CN(CCCCN)C(=O)CN(CCCCN)C(=O)CN(C(=O)CN(C(=O)CN(CCCCN)C(=O)CN(C(=O)CN(CCCCN)C(=O)CN(CCCCN)C(=O)CN(C(=O)CN(C(=O)CNCCCCN)[C@@H](C)c1ccccc1)[C@@H](C)c1ccccc1)[C@@H](C)c1ccccc1)[C@@H](C)c1ccccc1)[C@@H](C)c1ccccc1 [1-NLys5,11] (H-[Nlys][Nspe][Nspe][Nlys][Nlys][Nspe][Nlys][Nspe][Nspe][Nlys][Nlys][Nspe]-NH2; N-terminus and C-terminus assumed)
Retardation assay: mass of compound required to completely retard migration of 1 µg of DNA [1]: 1.0 µg
% ACN at RP-HPLC elution [3]: 51.2%
TEM: Bacterial count after 10 µM treatment (% of control) [4]: 100 % of control
TEM: Bacterial count after 100 µM treatment (% of control) [4]: 30 % of control

O=C(O)c1cn(C2CC2)c2cc(N3CCNCC3)c(F)cc2c1=O [Ciprofloxacin]
Decrease in bioluminescence at 1 h ([2]; 1 h, average of three independent experiments with two replicates each): ~ 97%
Killing of bacteria within 10 minutes (CFU plating, in words) [5]: did not kill bacteria
Aggregation of ribosomes (in words) [6]: no aggregation

CC[C@H](C)N(CC(N)=O)C(=O)CN(C(=O)CN(CCCCN)C(=O)CN(C(=O)CN(C(=O)CN(CCCCN)C(=O)CN(C(=O)CN(C(=O)CN(CCCCN)C(=O)CN(C(=O)CN(C(=O)CNCCCCN)[C@@H](C)CC)[C@@H](C)CC)[C@@H](C)CC)[C@@H](C)CC)[C@@H](C)CC)[C@@H](C)CC)[C@@H](C)CC [compound 2] (H-[Nlys][N(1S-Me-propyl)Gly][N(1S-Me-propyl)Gly][Nlys][N(1S-Me-propyl)Gly][N(1S-Me-propyl)Gly][Nlys][N(1S-Me-propyl)Gly][N(1S-Me-propyl)Gly][Nlys][N(1S-Me-propyl)Gly][N(1S-Me-propyl)Gly]-NH2)
Retardation assay: mass of compound required to completely retard migration of 1 µg of DNA [1]: >145^§ µg
E. coli ATCC 35218 MIC ([7]; listed as peptoid 2): > 100 µM
Activity in bioluminescence kinetics assay (in words) [2]: completely ineffective
% ACN at RP-HPLC elution [3]: 52.4%
TEM: Bacterial count after 10 µM treatment (% of control) [4]: 100 % of control
TEM: Bacterial count after 100 µM treatment (% of control) [4]: 100 % of control
Aggregation of ribosomes (in words) [6]: did not cause aggregation
SEM: Bacterial count after 10 µM treatment (% of control) [8]: 100 % of control

CC[C@H](C)[C@H](NC(=O)[C@H](CCCCN)NC(=O)[C@H](CCC(=O)O)NC(=O)[C@H](CCCCN)NC(=O)[C@H](CO)NC(=O)[C@H](CCCCN)NC(=O)[C@H](CCCNC(=N)N)NC(=O)[C@H](Cc1ccccc1)NC(=O)[C@H](Cc1ccccc1)NC(=O)[C@H](CC(=O)O)NC(=O)CNC(=O)[C@H](CC(C)C)NC(=O)[C@@H](N)CC(C)C)C(=O)NCC(=O)N[C@@H](CCCCN)C(=O)N[C@@H](CCC(=O)O)C(=O)N[C@@H](Cc1ccccc1)C(=O)N[C@@H](CCCCN)C(=O)N[C@@H](CCCNC(=N)N)C(=O)N[C@H](C(=O)N[C@H](C(=O)N[C@@H](CCC(N)=O)C(=O)N[C@@H](CCCNC(=N)N)C(=O)N[C@H](C(=O)N[C@@H](CCCCN)C(=O)N[C@@H](CC(=O)O)C(=O)N[C@@H](Cc1ccccc1)C(=O)N[C@@H](CC(C)C)C(=O)N[C@@H](CCCNC(=N)N)C(=O)N[C@@H](CC(N)=O)C(=O)N[C@@H](CC(C)C)C(=O)N[C@H](C(=O)N1CCC[C@H]1C(=O)N[C@@H](CCCNC(=N)N)C(=O)N[C@H](C(=O)N[C@@H](CCC(=O)O)C(=O)N[C@@H](CO)C(=O)O)[C@@H](C)O)C(C)C)[C@@H](C)CC)C(C)C)[C@@H](C)CC [LL-37, reference compound]
HD10 (hemolytic dose; concentration for 10% hemolysis) [9]: >100/>100^§ µM
HD50 (hemolytic dose; concentration for 50% hemolysis) [9]: >100/>100^§ µM
E. coli ATCC 35218 MIC [7]: 12.5 µM

oligomycin A
Activity in bioluminescence kinetics assay (in words) [2]: inactive
Killing of bacteria within 10 minutes (CFU plating, in words) [5]: did not kill bacteria
Aggregation of ribosomes (in words) [6]: no aggregation

CC[C@H](C)[C@H](NC(=O)CN)C(=O)NCC(=O)N[C@@H](C)C(=O)N[C@H](C(=O)N[C@@H](CC(C)C)C(=O)N[C@@H](CCCCN)C(=O)N[C@H](C(=O)N[C@@H](CC(C)C)C(=O)N[C@H](C(=O)N[C@H](C(=O)NCC(=O)N[C@@H](CC(C)C)C(=O)N1CCC[C@H]1C(=O)N[C@@H](C)C(=O)N[C@@H](CC(C)C)C(=O)N[C@H](C(=O)N[C@@H](CO)C(=O)N[C@@H](Cc1c[nH]c2ccccc12)C(=O)N[C@H](C(=O)N[C@@H](CCCCN)C(=O)N[C@@H](CCCNC(=N)N)C(=O)N[C@@H](CCCCN)C(=O)N[C@@H](CCCNC(=N)N)C(=O)N[C@@H](CCC(N)=O)C(=O)N[C@@H](CCC(N)=O)C(N)=O)[C@@H](C)CC)[C@@H](C)CC)[C@@H](C)O)[C@@H](C)O)C(C)C)C(C)C [melittin, reference compound]
E. coli ATCC 35218 MIC [7]: 12.5 µM
